Here are results for 2 substances from patent US20260152468A1, “NOVEL CERAMIDE, PREPARATION METHOD THEREFOR, AND USE THEREOF” (SHENZHEN DIKEMAN BIOTECHNOLOGY CO., LTD., priority 2022, published 2026).

For test [1], the system named is human keratinocytes (HaCaT) cells. The experiment in a line: Cell proliferation and viability by MTT assay. The format is cell-based. How it is done:
Cell proliferation and viability as detected by methylthiazolyldiphenyl-tetrazoliun bromide (MTT) assay: human keratinocytes (HaCaT) cells were seed in a 96-well plate at a cell density of 1×10^4 cells/well and placed in an incubator overnight. After 24 hours of incubation, the supernatant was discarded and 100 μL of culture medium containing samples (i.e., the product obtained in Example 1) at different concentrations or blank control (culture medium only) was added into the cells, and incubated for additional 24 hours, followed by removing the culture medium, adding 100 μL of MTT to each well, measuring the absorbance at 450 nm, and calculating the cell viability as: Cell viability=Adosing/Ablank×100%.
Background: Tetrazolium dyes change colour on reduction, which living cells bring about.

For test [2], the system named is AQP3 (aquaporin 3) expression in HaCat cells. Briefly: Moisturizing efficacy by AQP3 cell assay. In kind it is cell-based, human. As to conditions: 2.5 mmol/L. The method, then: Aquaporin 3 (AQP3) is a transporter factor responsible for transport of water, glycerol and urea on cell membrane, which is mainly expressed in keratinocytes and skin fibroblasts. AQP3 is not only involved in skin hydration and barrier function, but also plays an important role in skin damage, repair and healing, and is an important guarantee for maintenance of normal skin morphology and function.
The HaCat cells were seeded in a 96-well plate at a density of 1×10^4 cells/well and placed in an incubator overnight to allow cell adhesion. After 24 hours of incubation, the supernatant was discarded, and 100 μL of samples (i.e., the product obtained in Example 1) at different concentrations diluted with DMEM medium and DMEM medium free of the samples as a negative control group were added into the plate, each group in triplicate, followed by incubating under an atmosphere of 5% CO2 expressed by mass fraction at 37° C. At 2 hours after administration, […] LPS was added into both lipopolysaccharide model groups and experimental groups and then co-incubated for 24 hours. After completing the reaction, 50 μL of the cell supernatant was taken and detected for the AQP3 gene expression in the cells using a AQP3 assay kit.

Test [3] relates to interleukin-6 (IL-6) cytokine expression in B16 murine melanoma cells. Briefly: Anti-inflammatory repair efficacy, LPS-induced cell assay (IL-6 ELISA kit). The format is cell-based. As to conditions: 1 mmol/L. How it is done:
B16 murine melanoma cells were seeded in a 96-well plate at a cell density of 1×10^4 cells/well and placed in an incubator overnight to allow cell adhesion. After 24 hours of incubation, the supernatant was discarded, and 100 μL of samples (i.e., the product obtained in Example 1) at different concentrations diluted with DMEM medium and DMEM culture medium free of the samples as a negative control group were added into the cells, each group in triplicate, followed by incubating under an atmosphere of 5% CO2 expressed by mass fraction at 37° C. At 2 hours after administration, 10 μg/mL LPS was added into both lipopolysaccharide model groups and experimental groups and then co-incubated for 24 hours. After the reaction, 50 μL of the cell supernatant was taken and detected for IL-6 gene expression using a IL-6 ELISA kit.

For the substance ceramide 3B, the “abilities of cell healing and tissue-repairing (cell proliferation and viability assay, FIGS. 1-3)” value in test [1] is “relatively good abilities of cell healing and tissue-repairing”. For the same substance, the “increase of expression level of AQP3, comparison (FIG. 8)” value in test [2] is on record as “effectively increase the expression level of AQP3”. Besides, the “inhibition of expression of IL-6 inflammatory factors, comparison (FIG. 5)” value in test [3] is on record as “effectively inhibit the expression of IL-6 inflammatory factors”.
Regarding ceramide 3, in test [2], the “increase of expression level of AQP3, comparison (FIG. 8)” value is “effectively increase the expression level of AQP3”. In test [3], the “inhibition of expression of IL-6 inflammatory factors, comparison (FIG. 5)” value is given as “effectively inhibit the expression of IL-6 inflammatory factors”.
